Measurements published in BindingDB's records for doi:10.1021/jm00167a035 (Squibb Institute For Medical Research, 1990).

Assays:
[1] = Inhibition of [3H]nitrendipine binding to L-type calcium channel in guinea pig ventricular myocardium membranes
[2] = as above; remark: listed apart in the source

Row | Kd [1] | Kd [2] | SMILES
1 | 0.023 µM |  | CCOC(=O)C1C(C)=NC(SC)=NC1c1cccc([N+](=O)[O-])c1 (configuration not stated)
2 |  | 0.012 µM | CSC1=NC(c2cccc([N+](=O)[O-])c2)C(C(=O)OC(C)C)=C(C)N1 (configuration not stated)
3 |  | 0.035 µM | CCOC(=O)C1=C(C)NC(SC)=NC1c1ccccc1C(F)(F)F (configuration not stated)
4 |  | 0.105 µM | CCOC(=O)C1=C(C)N=C(OC)NC1c1cccc([N+](=O)[O-])c1 (configuration not stated)
5 |  | 3.4 µM | CCOC(=O)C1=C(C)NC(N(C)C)=NC1c1cccc([N+](=O)[O-])c1 (configuration not stated)
6 |  | 0.12 µM | COC(=O)C1=C(C)N=C(SC)NC1c1cccc([N+](=O)[O-])c1 (configuration not stated)
7 |  | 0.0026 µM | CCC(C)OC(=O)C1=C(C)NC(SC)=NC1c1cccc([N+](=O)[O-])c1 (configuration not stated)
